Assay results reported in paper PMC11093748, “De novo identification of CD4^+ T cell epitopes” (Nature Methods, 2024).

Experiments:
GSE.20D11 TCR = experiment: HLA-DQ8 SABR-II (+ HLA-A2.1 SABR) library screen, enrichment score; type: cell-based, human
Source text: To test whether HLA-DQ8 SABR-II could be used for antigen discovery, we curated a list of insulin B, insulin C and HIP epitopes published by Wiles et al.[58] and cloned them into the DQ8 SABR-II backbone using the same pooled cloning strategy as the I-Ag7 SABR-II library (Supplementary Table 2). Furthermore, we combined SABR-I (the HLA-A*0201 library reported in our previous work[27]) and SABR-II libraries at a cellular level and screened against the GSE.20D11 TCR.
(§1) To generate the I-Ag7 restricted SABR library, we combined all Immune Epitope Database epitopes with a published immunopeptidome generated by Wan et al.[51]. Sequences were filtered remove all post-translational modifications except deamidation and HIPs and trimmed between 9–25 amino acid lengths. For the insulin C HIP and HLA-DQ8 library, non-contiguous epitopes from Wiles et al.[66] as well as all Immune Epitope Database epitopes were combined to generate the epitope list. Epitope sequences were back-translated using the backtranslate_fast.py script.
(§2) For SABR library screens, 3 × 10^6 NFAT–GFP Jurkat cells expressing the SABR library were labeled with CellTrace Violet (BioLegend) according to the manufacturer’s protocol before incubation with 3 × 10^6 Jurkat cells expressing the TCR of interest. These mixtures were incubated in a six-well plate for 16–20 h. Cells were stained with anti-CD69-APC-Cy7 where indicated (BioLegend) and the top 1–2% of GFP^+CD69^+ cells were sorted for genomic DNA extraction, indexing and sequencing (see below). Multiplexed assays were scaled on a per-TCR basis (for example 3 × 10^6 for each of three TCRs against 9 × 10^6 library cells). For single SABR assays, unless otherwise defined, 5 × 10^5 SABR expressing NFAT–GFP Jurkat cells (or 5KC cells) were labeled with CellTrace Violet (BioLegend) according to the manufacturer’s protocol before incubation with 5 × 10^5 TCR-expressing Jurkat cells (or 5KC cells) in a round-bottom 96-well plate for 16–20 h. Cells were stained with anti-CD69-APC-Cy7 when indicated and acquired on the Attune NxT flow cytometer (Thermo Fisher Scientific). All flow analysis was performed using FlowJo (BD). For Daudi cell co-culture, 1 × 10^6 Jurkat cells expressing the TCR of interest were incubated with 1 × 10^6 Daudi cells expressing a SABR of interest for 3 days. On day 3, cells were labeled with anti-RT1B-PE and anti-Fas-APC-Cy7 before being acquired on the Attune NxT flow cytometer.
Genomic DNA was extracted from sorted cells immediately after sorting, using the PureLink genomic DNA extraction kit (Life Technologies). The integrated SABR vectors were amplified with KOD polymerase (Millipore) and two rounds of amplification. In the first round, IDT-UD-SABR-C2-F and IDT-UD-SABR-C2-R primers were used to amplify the epitope. In the second round, UDI0001-R and UDI0001-F primers (representative of index 1) were used to add Illumina unique dual indexes (UDIs) to the amplicons. A different UDI was used for each sample. The reactions were pooled and purified with the NucleoSpin gel and PCR purification kit (Takara). The purified PCR product was checked before sequencing using 2% agarose gel and subjected to sequencing on a HiSeq4000 (Fulgent Genetics). Unaligned reads generated by the sequencer were stored in FASTQ files. FASTQ files were concatenated to generate one file for read1 and read2 each. The sequences were demultiplexed into individual indexes using demultiplex_dual.py. Epitopes were extracted and scored using epitope_extract_fastq_v1.1.py and merge_counts_split_v2.1.py. The ES was calculated using Microsoft Excel (Microsoft) workbooks.

TCR3 [1] = experiment: I-Ag7 SABR-II HIP library screen, enrichment score; type: cell-based, mouse
Source text: (§3) Given the predominance of HIP-reactive TCRs, we hypothesized that there may be other TCRs that respond to HIPs that were not encoded in our initial library configuration. While the initial I-Ag7 SABR-II library consisted of a number of HIPs, HIP formation is thought to be more widespread in pancreatic β-cells[52],[70]. Therefore, we sought to construct a defined, HIP-focused library to probe whether there were any undiscovered HIP-reactive TCRs that could be recognized by the clonally expanded TCR in our dataset. To test this, we utilized a published proteomic dataset, which predicted that several proteins that were highly expressed in secretory granules of β-cells may contribute to HIP formation. Using their predictions, we built a theoretical HIP library, in which all possible ‘left’ halves of the insulin C chain derived from natural cleavage products were fused to ‘right’ halves derived from secretory granule proteins (Fig. 5a). This 2,561-epitope library (12–25 amino acids per epitope) consisted of only HIPs and a small number of positive control epitopes (Supplementary Table 5). We screened the top three clonally expanded TCRs (TCR1, TCR2 and TCR3) against this library, as these TCRs had not been de-convoluted using the original library. […] To confirm that the HIP itself was important for the cognate interaction, we cloned single 14-mer epitopes into SABR-IIs consisting of seven amino acids of the left portion of the HIP and seven amino acids of the right portion of the HIP. In this way, no nine amino acids from either peptide sequence alone could occupy the binding pocket of I-Ag7, ensuring that TCR reactivity spanned the HIP junction. […] Of note, in all the epitopes that were tested, the ‘left’ half derived from insulin C was conserved, whereas the ‘right’ halves were derived from several other proteins (Fig. 5d). […] Moreover, the promiscuous binding of TCR3 to HIPs corroborates evidence from other NOD mouse-derived TCRs reacting to multiple HIPs[72].
as §1
as §2, with “cytometer. […]” for “cytometer.”

Jurkat cells, No TCR = experiment: Single SABR-II co-incubation, background without TCR; type: cell-based, human; conditions: No TCR, Fig 5C
Source text: (§4) We performed systematic screening of the cloned TCRs against the I-Ag7 SABR-II library. Several TCRs along with a positive control (such as BDC2.5 or 4-8Ins) were screened individually against the library for each sort (Extended Data Fig. 6a and Supplementary Table 4). High- and low-confidence ES zones for each screened TCR were defined by the ES values of the control TCR’s cognate epitopes. For all putative cognate epitopes, single SABR-IIs were constructed, expressed in NFAT–GFP Jurkat cells and used for co-incubation with the corresponding TCRs. Co-incubation assays that yielded a GFP signal higher than that obtained in assays with no TCR were determined to be positive and the epitopes deemed true cognate ligands (Extended Data Fig. 6b,c). Using this strategy, we obtained epitopes in the high-confidence zone for eight TCRs (Fig. 3a and Extended Data Fig. 6b,d). Among numerous altered peptide ligands (APLs), these TCRs recognized the physiological InsC-ChgA HIP ([…] and analogs, recognized by TCR5, TCR6B, TCR9 and TCR34), InsC-Iapp HIP ([…] and analogs, recognized by TCR4 and TCR15) and InsB9:23 ([…] and analogs recognized by TCR24 and TCR37). These cognate high-confidence hits were validated using single SABR-II co-incubation assays (Fig. 3b and Extended Data Fig. 7a). Further validations using in vitro mouse interleukin-2 (mIL-2) secretion by TCR-expressing 5KC reporter cells[13] or CD25 expression by TCR-expressing splenic CD4^+ T cells upon stimulation with the cognate epitope were performed (Extended Data Fig. 7b,c). Furthermore, low-confidence hits were called for ten TCRs and tested in co-incubation assays.
as §2

TCR3 [2] = experiment: Single SABR-II co-incubation, NFAT-GFP Jurkat; type: cell-based, mouse; conditions: TCR 3, Fig 5C
Source text: as §3, §2

TCR4 = experiment: Single SABR-II co-incubation, NFAT-GFP Jurkat; type: cell-based, mouse; conditions: TCR 4, Fig 5C
Source text: as §4, §2

[3] = ES = TCRObserved - TCRPredicted, TCRPredicted = LIBObserved x SLOPE + INTERCEPT, SLOPE 1.10224, INTERCEPT -1.65707e-5
[4] = HLA-A2.1 and HLA-DQ8 SABR libraries screened simultaneously, reads mapped to DQ8 library, one biological experiment
[5] = HIP library, TCR 3, TCR_Mean of 3 replicates minus PREDICTED_TCR (slope 0.926662, intercept 2.88051e-5)
[6] = I-Ag7 HIP library, one biological experiment

Q: How did the “Enrichment score” value (GSE.20D11 TCR; [3]) turn out when AAPSVFIFPPSDEQLK was run?
A: Its value is -0.0003017.

Q: What about the “Enrichment score” value (GSE.20D11 TCR; [4]) of the same sequence?
A: Its value is -0.0003017.

Q: With AASKERSGVSL as the sequence, how does the “Enrichment score” value (GSE.20D11 TCR; [3]) read?
A: Its value is 3.541e-5.

Q: And the “Enrichment score” value (GSE.20D11 TCR; [4])?
A: Its value is 3.541e-5.

Q: Which results are given for APKRPPSAF?
A: Enrichment score (GSE.20D11 TCR; [3]): 2.7496e-5; Enrichment score (GSE.20D11 TCR; [4]): 2.7496e-5

Q: How did the “Enrichment score” value (GSE.20D11 TCR; [3]) turn out when CDGERPTLAFLQDVM was run?
A: The value was -0.0002437.

Q: What about the “Enrichment score” value (GSE.20D11 TCR; [4]) of the same sequence?
A: Its value is -0.0002437.

Q: Which “Enrichment score” value (TCR3 [1]; [5]) does the source give for DPQVEQLELGGSKDSDKGQQDGFE here?
A: The value was 0.001805.

Q: With EDPQVEQLELGGAEDQELESLSAI as the sequence, how does the “Enrichment score” value (TCR3 [1]; [5]) read?
A: The value was 0.001322.

Q: EDPQVEQLELGGKADEFPDFYDSE was tested. Which “Enrichment score” value (TCR3 [1]; [5]) did it give?
A: Its value is 0.001943.

Q: With “EVEDEVEDPQVAQLELGGGPGAGD [theoretical HIP of the I-Ag7 HIP library]” as the sequence, how does the “Enrichment score” value (TCR3 [1]; [6]) read?
A: The value was 2.439e-5.

Q: With “EVEDEVEDPQVEQLELGGSPGDLQ [theoretical HIP of the I-Ag7 HIP library]” as the sequence, how does the “Enrichment score” value (TCR3 [1]; [6]) read?
A: The value was 0.0001951.

Q: How did the “Enrichment score” value (TCR3 [1]; [6]) turn out when “EVEDFVKQHLCGPHLVEALYLVCG [theoretical HIP of the I-Ag7 HIP library]” was run?
A: Its value is -1.381e-6.

Q: How did the “Enrichment score” value (TCR3 [1]; [6]) turn out when “EVEDFVKQHLCGSHLVEALYLVCG [theoretical HIP of the I-Ag7 HIP library]” was run?
A: The value was -0.0001794.

Q: Which “Enrichment score” value (TCR3 [1]; [6]) does the source give for “EVEDGIVDQCCTSICSLYQLENYC [theoretical HIP of the I-Ag7 HIP library]” here?
A: The value was 1.206e-5.

Q: How did the “Enrichment score” value (TCR3 [1]; [5]) turn out when EVEDPQVEQLELNAARDPNRESLD was run?
A: Its value is 0.002309.

Q: Which “%GFP+CD69+ cells of SABR-NFAT-GFP-Jurkat cells” value (shortened to “%GFP+CD69+ cells”) (Jurkat cells, No TCR; technical replicate 1) does the source give for “QVEQLELNAARDPN [14-mer hybrid insulin peptide spanning the fusion junction, TCR3 hit]” here?
A: The value was 2.19%.

Q: What about the “%GFP+CD69+ cells” value (Jurkat cells, No TCR; technical replicate 2) of the same sequence?
A: The value was 2.2%.

Q: What about the “%GFP+CD69+ cells” value (TCR3 [2]; technical replicate 1) of the same sequence?
A: Its value is 66.4%.

Q: What about the “%GFP+CD69+ cells” value (TCR3 [2]; technical replicate 2) of the same sequence?
A: The value was 66.1%.

Q: And the “%GFP+CD69+ cells” value (TCR4; technical replicate 1)?
A: The value was 2.09%.

Q: What about the “%GFP+CD69+ cells” value (TCR4; technical replicate 2) of the same sequence?
A: Its value is 2.09%.

Q: Which “Enrichment score” value (TCR3 [1]; [5]) does the source give for VEDPQVEQLELGSGKEVKGEEKGE here?
A: The value was 0.002292.

Q: Which “%GFP+CD69+ cells” value (Jurkat cells, No TCR; technical replicate 1) does the source give for “VEQLELGAKQEEKE [14-mer hybrid insulin peptide spanning the fusion junction, TCR3 hit]” here?
A: Its value is 1.47%.

Q: What about the “%GFP+CD69+ cells” value (Jurkat cells, No TCR; technical replicate 2) of the same sequence?
A: The value was 1.55%.

Q: And the “%GFP+CD69+ cells” value (TCR3 [2]; technical replicate 1)?
A: The value was 80.7%.

Q: What about the “%GFP+CD69+ cells” value (TCR3 [2]; technical replicate 2) of the same sequence?
A: Its value is 80.6%.

Q: And the “%GFP+CD69+ cells” value (TCR4; technical replicate 1)?
A: Its value is 1.47%.

Q: And the “%GFP+CD69+ cells” value (TCR4; technical replicate 2)?
A: Its value is 1.36%.

Q: With “VEQLELGSGKEVKG [14-mer hybrid insulin peptide spanning the fusion junction, TCR3 hit]” as the sequence, how does the “%GFP+CD69+ cells” value (Jurkat cells, No TCR; technical replicate 1) read?
A: The value was 3.79%.

Q: And the “%GFP+CD69+ cells” value (Jurkat cells, No TCR; technical replicate 2)?
A: The value was 4%.

Q: And the “%GFP+CD69+ cells” value (TCR3 [2]; technical replicate 1)?
A: The value was 78.8%.

Q: What about the “%GFP+CD69+ cells” value (TCR3 [2]; technical replicate 2) of the same sequence?
A: Its value is 77.6%.

Q: And the “%GFP+CD69+ cells” value (TCR4; technical replicate 1)?
A: Its value is 4.13%.

Q: And the “%GFP+CD69+ cells” value (TCR4; technical replicate 2)?
A: The value was 4.17%.
